Reference: patent publication US20190151236A1, “LIPOSOMAL CORTICOSTEROIDS FOR TOPICAL INJECTION IN INFLAMED LESIONS OR AREAS” (ENCELADUS PHARMACEUTICALS B.V., priority 2016, published 2019)
Where two headings read alike, the source gives them in different places.

Tests used:
cataract formation = assay: Cataract formation on slit lamp biomicroscopy on day 31 (LOCS scale) in the rabbit uveitis study; conditions: day 31, slit lamp, FIG. 4
Method: Clinical examination was performed by 2 masked independent investigators. Slit-lamp biomicroscopy, measurement of intraocular pressure with the Tonopen, photography of the anterior segment and dilated fundal examination with binocular indirect ophthalmoscopy using a 20D lens were performed prior to uveitis induction and at 8 defined time points thereafter (Days 0, 1, 3, 4, 8, 9, 11, 16, 24 and 31). Clinical severity of uveitis was scored by evaluating anterior chamber cells/flares, vitreous haze, and iris vessels. […] The combined anterior segment inflammatory score was defined as the sum of the scores for iris vessels, anterior chamber cells and anterior chamber flare. The presence of cataract was determined on slit lamp biomicroscopy on day 31 and graded based on the LOCS scale.

`C[C@]12C=CC(=O)C=C1CC[C@@H]1[C@@H]2[C@@H](O)C[C@@]2(C)[C@H]1CC[C@]2(O)C(=O)COP(=O)(O)O` [Free PP, prednisolone phosphate] was tested, and the “Combined anterior segment inflammatory score” value (experimental uveitis; Day 1 after 1st intravitreal induction, before intervention (baseline), mean ± SD, sum of iris congestion (0-3), anterior chamber cells (0-4), flare (0-3)) was 8.6 ± 0.5, the “Combined anterior segment inflammatory score” value (experimental uveitis; Day 3, at intervention (baseline, maximum inflammation)) was 8.0 ± 0.7 and the “Combined anterior segment inflammatory score” value (experimental uveitis; Day 4, one day after intervention (single 0.1 ml subconjunctival injection 4 mg/ml, or eye drops 4 drops per day)) was 6.0 ± 0.7. The “Combined anterior segment inflammatory score” value (experimental uveitis; Day 8, 5 days after intervention, before 2nd intravitreal induction) was 3.2 ± 0.4, the “Combined anterior segment inflammatory score” value (experimental uveitis; Day 9, 1 day after 2nd intravitreal induction) was 8.0 ± 1.2 and the “Combined anterior segment inflammatory score” value (experimental uveitis; Day 11, 3 days after rechallenge of intravitreal TB antigen) was 7.0 ± 2.3. The “Combined anterior segment inflammatory score” value (experimental uveitis; Day 16, 2 weeks post treatment) was 5.4 ± 1.3, the “Combined anterior segment inflammatory score” value (experimental uveitis; Day 24) was 2.8 ± 0.4 and the “Combined anterior segment inflammatory score” value (experimental uveitis; Day 31) was 2.2 ± 1.3. For the same compound, the “Cataract formation (posterior subcapsular cataracts)” value (cataract formation) was “trend towards higher rates”.
